From PubChem BioAssay AID2060360 (Molecular Pharmacology Branch, DTP, NCI, 2025)
“And” between values parts separate entries of the source, which are not always exact repeats. Equal entries are not always repeated.

Tested on: 282377-053-R-J1-PDC tumor spheroids, viability
Assay: Anticancer human tumor 282377-053-R-J1-PDC patient-derived colon adenocarcinoma cell line growth inhibition [TAK]
Settings: spheroids with HUVEC and MSC; for viability, T/C: stronger effect = lower value
Description: Combinatorial screen of targeted agents with TAK-243 and ipatasertib in multi-cell type tumor spheroids
A high-throughput screen of multi-cell type tumor spheroids was designed to identify active combinations of targeted small molecules and TAK-243 or ipatasertib. Complex spheroids include a stromal component modeled by human endothelial cells (HUVEC) and fibroblasts modeled by human mesenchymal stem cells (MSCs). The concentration ranges selected for each drug and investigational agent were based upon clinically achievable concentrations if the clinical Cmax of the agent was known.
Compounds. The drugs and investigational agents: TAK-243 (785004), ipatasertib (767898), everolimus (733504), selumetinib (741078), bortezomib (756655), trametinib (758246), ixazomib (758254), vemurafenib (761431), dabrafenib (764134), sapanisertib (764658), alpelisib (765974), and copanlisib (816437), were obtained from the National Cancer Institute (NCI) Developmental Therapeutics Program Chemical Repository. The FDA-approved anticancer drug set is available from the NCI Developmental Therapeutics Program. […] The stock solutions were prepared in dimethyl sulfoxide (DMSO, Sigma-Aldrich, St. Louis, MO, cat. D2650) at 800-fold the tested concentration and stored at -70 degrees C prior to their use. All drugs and investigational agents were tested over a range starting from a high concentration at or near the clinical Cmax and decreasing in half-log increments. If the clinical Cmax for an agent had not been determined, the highest concentration tested was 10 microM.
NCI60 Cell Culture. NCI60 cell lines were obtained from the NCI Developmental Therapeutics Program Tumor Repository. For each lot of cells, the Repository performed Applied Biosystems AmpFLSTR Identifiler testing with PCR amplification to confirm consistency with the published Identifier STR profile for each cell line. Cells were kept in continuous culture for no more than 20 passages. The optimal seeding densities for each of the cell lines at each time point assessed were determined prior to performing the concentration response studies. Briefly, the NCI60 human tumor lines were grown as monolayers in RPMI 1640 medium supplemented with 10% FBS and 2 mmol/L L-glutamine.
An additional 2 lines were from the NCI60 cell line panel including melanomas, MALME-3M and SK-MEL-2. Pooled donor human umbilical vein endothelial cells (HUVEC, Lonza, cat. CC-2519) and human mesenchymal stem cells (hMSC, Lonza, cat. PT-2501) were purchased from Lonza (Walkersville, MD).
PDMR cell lines were grown in complete medium (DC medium): Dulbecco's modified Eagle's medium (DMEM)/F12 supplemented with 5% fetal bovine serum (FBS), 2 mM L-glutamine, 100 U/mL penicillin and 100 µg/ml streptomycin, 0.4 µg/ml hydrocortisone, 10 ng/ml epidermal growth factor (EGF) recombinant human protein, 24 µg/mL adenine, and 0.1 mg/mL primocin. During culture from frozen stock vials, PDMR cells were cultured in the same medium containing 10 µM Y-27632 (see Table 3). The PDCs were cultured in complete DMEM/F12 media without 10 microM Y-27632 dihydrochloride for at least two passages prior to the screen. The pooled donor HUVEC and hMSC were cultured in endothelial cell growth medium 2 (PromoCell, Heidelberg, Germany, cat. C-22011) and mesenchymal stem cell growth medium 2 (PromoCell, cat. C-28009), respectively. For all experiments, HUVEC and hMSC were used at passages </=5.
For the pre-screen, cell seeding densities were determined from a titration spanning the range from 5,000 to 313 cells per well. The mct-spheroids including 60% malignant cells, 25% HUVEC and 15% MSC dispensed as a mixture into U-bottom Ultra-Low Attachment 384-well plates (Corning, NY)
High-throughput Drug Combination Screening.
Prior to their inoculation into 384-well plates, malignant cells, HUVEC, and hMSC were removed from T flasks using TrypLE express (Thermo Fisher Scientific, cat. 12605036) and harvested by centrifugation for 5 min at 233 x g. […]
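Further: spheroids exposed to drugs for seven days before readout.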

Row | SMILES | IC50 (curve of compound) | viability, T/C (compound 0.0316 µM) | viability, T/C (compound 0.1 µM) | viability, T/C (compound 0.316 µM) | viability, T/C (compound 1 µM) | viability, T/C (compound 0.000316 µM) | viability, T/C (compound 0.001 µM) | viability, T/C (compound 0.00316 µM) | viability, T/C (compound 0.01 µM) | also measured
1 | CC(=O)Nc1cccc(-n2c(=O)n(C3CC3)c(=O)c3c(Nc4ccc(I)cc4F)n(C)c(=O)c(C)c32)c1 | 3.89 nM and 5.29 nM | – | – | – | – | – | – | – | – | viability, T/C (compound 94.9 pM): 98.3% and 96.1%; viability, T/C (compound 0.0003 µM): 86.1% and 84.3%; viability, T/C (compound 0.000949 µM): 70.9% and 75.1%; viability, T/C (compound 0.003 µM): 60.2% and 62.8%; viability, T/C (compound 0.00949 µM): 29.5% and 37.9%; viability, T/C (compound 0.03 µM): 13.8% and 13.7%
2 | CC(C)(C)c1nc(-c2cccc(NS(=O)(=O)c3c(F)cccc3F)c2F)c(-c2ccnc(N)n2)s1 | > 10000 nM | 85.2% and 87.2% | 84.1% and 87.2% | 78.2% and 83.8% | 78.9% and 81.5% | – | – | – | – | viability, T/C (compound 3.16 µM): 79% and 76%; viability, T/C (compound 10 µM): 69.4% and 69.9%
3 | CC(C)CC(NC(=O)C(Cc1ccccc1)NC(=O)c1cnccn1)B(O)O (stereo unspecified) | > 10 nM | – | – | – | – | 99.5% and 94.6% | 109% and 101% | 100% and 97.2% | 93.2% and 81.1% | viability, T/C (compound 31.6 pM): 106% and 102%; viability, T/C (compound 0.0001 µM): 98.4% and 102%
4 | CC(C)CC(NC(=O)CNC(=O)c1cc(Cl)ccc1Cl)B1OC(=O)CC(CC(=O)O)(C(=O)O)O1 (stereo unspecified) | 55.8 nM and 57.5 nM | 93.3% and 95% | 5.66% and 8.2% | – | – | 97.6% and 92.8% | 95.9% and 104% | 101% and 95.3% | 97.9% and 101% | –
5 | CC(C)NCC(C(=O)N1CCN(c2ncnc3c2C(C)CC3O)CC1)c1ccc(Cl)cc1 (stereo unspecified) | – | – | – | – | – | – | – | – | – | viability, T/C (compound 0.3 µM): 100% [middle of 10 runs]; viability, T/C (compound 0.949 µM): 92% [middle of 10 runs]; viability, T/C (compound 3 µM): 84.9% [middle of 10 runs]; viability, T/C (compound 9.49 µM): 81.9% [middle of 10 runs]; viability, T/C (compound 30 µM): 69.3% [middle of 10 runs]; IC50 (compound alone, run of 03/19/2020): > 30000 nM
6 | CC(C)n1nc(-c2ccc3oc(N)nc3c2)c2c(N)ncnc21 | > 100 nM | 83% and 83.3% | 49.6% and 59.1% | – | – | 99.5% and 93.2% | 99% and 92.6% | 99.7% and 91.3% | 89.3% | –
7 | CCCS(=O)(=O)Nc1ccc(F)c(C(=O)c2c[nH]c3ncc(-c4ccc(Cl)cc4)cc23)c1F | > 100000 nM | – | – | 86.4% and 86.2% | 82.3% and 82.7% | – | – | – | – | viability, T/C (compound 3.16 µM): 82.7% and 85.6%; viability, T/C (compound 10 µM): 21.3% and 27%; viability, T/C (compound 31.6 µM): 89.4% and 84.6%; viability, T/C (compound 100 µM): 75.5% and 94%
8 | COC1CC2CCC(C)C(O)(O2)C(=O)C(=O)N2CCCCC2C(=O)OC(C(C)CC2CCC(OCCO)C(OC)C2)CC(=O)C(C)C=C(C)C(O)C(OC)C(=O)C(C)CC(C)C=CC=CC=C1C (stereo unspecified) | > 100 nM | 94.2% and 95.4% | 101% and 97.8% | – | – | 101% and 99.3% | 101% and 97.3% | 97.6% and 98.6% | 102% and 103% | –
9 | COc1c(OCCCN2CCOCC2)ccc2c3n(c(=NC(=O)c4cnc(N)nc4)nc12)CCN3 | > 1000 nM and 555 nM | 98.1% and 97.2% | 98% and 87.7% | 97.2% and 80.9% | 56.2% and 19.3% | – | – | 101% | 100% and 94.6% | –
10 | Cc1nc(NC(=O)N2CCCC2C(N)=O)sc1-c1ccnc(C(C)(C)C(F)(F)F)c1 (stereo unspecified) | > 10000 nM | 97.1% and 95.8% | 96.6% and 101% | 95.6% and 96.5% | 93.9% and 93.5% | – | – | – | – | viability, T/C (compound 3.16 µM): 89.7% and 88.6%; viability, T/C (compound 10 µM): 85.2% and 79.1%
11 | Cn1cnc2c(F)c(Nc3ccc(Br)cc3Cl)c(C(=O)NOCCO)cc21 | 867 nM and 611 nM | – | – | – | – | – | – | – | – | viability, T/C (compound 0.00949 µM): 89.8% and 85.2%; viability, T/C (compound 0.03 µM): 88.6% and 82.3%; viability, T/C (compound 0.0949 µM): 79% and 71.6%; viability, T/C (compound 0.3 µM): 76.2% and 72.7%; viability, T/C (compound 0.949 µM): 46.9% and 36.5%; viability, T/C (compound 3 µM): 21.5% and 17.7%
